Experimental data reported in patent US10287308B2, “Compounds, compositions, and methods for the treatment of cancers” (priority 2013, dated 2019).

Legend:
[1] = physchem
[2] = logP by reverse phase HPLC retention time against a calibration curve; conditions: chromatographic method, Zorbax Eclipse XDB C8, 30° C.
[3] = Maximum tolerated dose used in the mouse PK/PD study; format: in vivo; conditions: H460 tumor-bearing mice
[4] = H460 tumor-bearing nude mice, intravenous, dosed at MTD as free drug, 24 hour time point, FIG. 2

| SMILES | chromatographic logP [1] | Measured LogP [2] | Dose (mg/kg), dosed at the maximum tolerated dose (MTD) [3] [mg/kg] | platinum levels in the tumor [4] |
| --- | --- | --- | --- | --- |
| CCNC(=O)[O][Pt]([NH2])([NH2])([Cl])([Cl])[O]C(C)=O [Compound 1] | < 1 | – | – | – |
| CCNC(=O)[O][Pt]([NH2])([NH2])([Cl])([Cl])[O]C(=O)NCC [Compound 5] | – | <1 | 30 | higher platinum levels |
